Experiment [1] deals with A. baumannii AB5075. As to the kind of experiment: Murine pneumonia model vs. A. baumannii AB5075 (survival). Particulars: 1×10^8 CFU; for protection against lethal challenge (survival monitored 5 days): 5 mg/kg IV twice at t=+1 h and +4 h, n=5 (FIG. 118). The experiment is classed as in vivo, C57BI/6J mice. Here is the method:
The murine pneumonia model was adapted from Lin et al., 2015 (PMID: 26288841). A. baumannii AB5075 was grown to log-phase in LB at 37° C., 200 rpm shaking. Bacteria were washed once with PBS via centrifugation at 4,000 rpm. Bacteria were adjusted to the desired concentration in PBS.
Prior to infection, 8-week-old female C57BI/6J mice (Jackson Labs) were anesthetized with 100 mg/kg ketamine and 10 mg/kg xylazine. Using an otoscope, mice were infected non-invasively directly into the trachea.
Mice were infected with 5×10^7 CFU in 30 μL of PBS. Mice were treated intraperitoneally with different doses of conjugate 23 or hIgG1 (50 mpk) at t=−12 h pre-infection and t=+1 h post-infection or with colistin (10 mpk) or PBS at t=+1 h, 5 h, 24 h, 36 h, 48 h and 60 h post-infection.
Survival of mice (n=5 per group) was monitored for 5 days. […] Colistin was used as positive control resulting in 80% protection.
The murine pneumonia model was adapted from Lin et al., 2015 (PMID: 26288841). A. baumannii AB5075 was grown to log-phase in LB at 37° C., 200 rpm shaking. Bacteria were washed once with PBS via centrifugation at 4,000 rpm. Bacteria were adjusted to the desired concentration in PBS. Prior to infection, 8-week-old female C57BI/6J mice (Jackson Labs) were anesthetized with 100 mg/kg ketamine and 10 mg/kg xylazine. Using an otoscope, mice were infected non-invasively directly into the trachea.
Mice were infected with 5×10^7 CFU in 30 μL of PBS. Mice were treated intraperitoneally with conjugate 34 or hIgG1 (50 mpk) at t=−12 h pre-infection.
Survival of mice (n=4 per group) was monitored for 5 days. A single dose of ADC conjugate 34 was protective (75% survival) against a lethal challenge with A. baumannii AB5075.
The murine pneumonia model was adapted from Lin et al., 2015 (PMID: 26288841). A. baumannii AB5075 was grown to log-phase in LB at 37° C., 200 rpm shaking. Bacteria were washed once with PBS via centrifugation at 4,000 rpm. Bacteria were adjusted to desired concentration in PBS. […]
The survival (n=5 per group) was monitored twice daily for 5 days. […]

In experiment [2] the test system is Ab 8990 (COL^R). The experiment is classed as cell-based, Acinetobacter baumannii. The essentials:
(§1)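 Strains are exposed to 8- or 12-step twofold compound dilutions, conjugates being assayed in RPMI B. For Pa LES431, parallel runs include 50% heat-inactivated FBS. Plates incubate overnight, 16-20 h at 35° C.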

The subject of experiment [3] is Ab AB5075. The experiment is classed as cell-based, Acinetobacter baumannii. Particulars: for MIC in RPMI AB 5075: pH 7.4. The essentials:
as §1

Experiment [4] deals with Pa 27853. The experiment is classed as cell-based, Pseudomonas aeruginosa. The essentials:
as §1

Experiment [5] concerns Pa LES431. Type of experiment: cell-based, Pseudomonas aeruginosa. The essentials: as §1
Experiment [6] relates to Pa PAO1. The experiment is classed as cell-based, Pseudomonas aeruginosa. The conditions noted are these: for MIC in RPMI PA 01: PAO1, pH 7.4. Summed up: as §1

In brackets after ≈: the same amount, converted by molar mass. Like-named read-outs stand apart in the source and are kept apart here. *1 amine or outer side, *2 acyl side, *3 side chain or, on linkers, in order; H or OH if unused. Where a SMILES comes first, the peptide text is derived from it. Bridges are numbered along the chain shown (N, C = ends). Roman numbers before positions name the chains, in order. [ ]: non-standard residue; d: D form. The star is where a group is joined. X5 = C#CCOCCOCCOCCOCCN1C[C@@H](C(=O)[*:1])[C@H](C(=O)[*:2])C1; X2 = O=C([C@@H](N[*:1])[C@H](O)CCC(F)(F)F)[*:2]; Propargyl(OCH2CH2)4CO = C#CCOCCOCCOCCOCCC(=O)*; X3 = CCCCC[C@@H](O)[C@H](N[*:1])C(=O)[*:2]; azaDab = NCCN(N[*:1])C(=O)[*:2]; Aoc(2) = CCCCCC[C@H](N)C(=O)O; hLeu = CC(C)CC[C@H](N)C(=O)O; Nle = CCCC[C@H](N)C(=O)O; Dab = NCC[C@H](N)C(=O)O; azaGly = NNC(=O)O

As usually defined, the MIC is the lowest concentration found to suppress growth. For `C#CCOCCOCCOCCOCCC(=O)N[C@@H](CCC(C)C)C(=O)N[C@@H](CCN)C(=O)N[C@H](C(=O)NNC(=O)N[C@H]1CCNC(=O)[C@H]([C@@H](C)O)NC(=O)[C@H](CCN)NC(=O)[C@H](CCN)NC(=O)[C@H](CC(C)C)NC(=O)[C@@H](Cc2ccccc2)NC(=O)[C@H](CCN)NC1=O)[C@H](O)CCCCC` [Int-116] ({Propargyl(OCH2CH2)4CO}-[hLeu][Dab][X3][azaGly][Dab][Dab][dF]L[Dab][Dab]T; lactam 5-C), in experiment [1], the “protection against lethal challenge (survival monitored 5 days)” value was “fully protective”. Moreover, the MIC in experiment [2] (Ab 8990 (COL^R), media CA-MHB) is above 128 µg/mL; in experiment [3] it was 1 µg/mL (≈ 0.691 µM); in experiment [4], 4 µg/mL (≈ 2.76 µM); in experiment [5], 4 µg/mL (≈ 2.76 µM); in experiment [6] (PAO1), 4 µg/mL (≈ 2.76 µM). Moreover, the “MIC in RPMI AB 5075” value in experiment [3] worked out at 1.05 µg/mL (≈ 0.726 µM). Besides, the “MIC in RPMI PA 01” value in experiment [6] turned out to be 8.41 µg/mL (≈ 5.81 µM).

Regarding `C#CCOCCOCCOCCOCCC(=O)N[C@@H](CCCCCC)C(=O)N[C@@H](CCN)C(=O)N[C@H](C(=O)N[C@@H](CCN)C(=O)N[C@H]1CCNC(=O)[C@H]([C@@H](C)O)NC(=O)[C@H](CCN)NC(=O)[C@H](CCN)NC(=O)[C@H](CC(C)C)NC(=O)[C@@H](Cc2ccccc2)NC(=O)[C@H](CCN)NC1=O)[C@H](O)CCC(F)(F)F` [Int-118] ({Propargyl(OCH2CH2)4CO}-[Aoc(2)][Dab][X2][Dab][Dab][Dab][dF]L[Dab][Dab]T; lactam 5-C), in experiment [1], the “protection against lethal challenge (survival monitored 5 days)” value was determined as 40%. For the same compound, the MIC in experiment [2] was determined as 128 µg/mL (≈ 83.7 µM); in experiment [3], 1 µg/mL (≈ 0.654 µM); in experiment [4], 2 µg/mL (≈ 1.31 µM); in experiment [5], 1 µg/mL (≈ 0.654 µM); in experiment [6] (PAO1), 2 µg/mL (≈ 1.31 µM). The “MIC in RPMI AB 5075” value in experiment [3] stood at 0.95 µg/mL (≈ 0.621 µM). Besides, the “MIC in RPMI PA 01” value in experiment [6] was 3.81 µg/mL (≈ 2.49 µM).

`C#CCOCCOCCOCCOCCN1C[C@@H](C(=O)N[C@@H](CCCC)C(=O)N[C@@H](CCN)C(=O)N[C@H](C(=O)NNC(=O)N[C@H]2CCNC(=O)[C@H]([C@@H](C)O)NC(=O)[C@H](CCN)NC(=O)[C@H](CCN)NC(=O)[C@H](CC(C)C)NC(=O)[C@@H](Cc3ccccc3)NC(=O)[C@H](CCN)NC2=O)[C@@H](C)O)[C@H](C(=O)N[C@@H](CCCC)C(=O)N[C@@H](CCN)C(=O)N[C@H](C(=O)NNC(=O)N[C@H]2CCNC(=O)[C@H]([C@@H](C)O)NC(=O)[C@H](CCN)NC(=O)[C@H](CCN)NC(=O)[C@H](CC(C)C)NC(=O)[C@@H](Cc3ccccc3)NC(=O)[C@H](CCN)NC2=O)[C@@H](C)O)C1` [Int-120] (I: [Nle][Dab]T[azaGly][Dab][Dab][dF]L[Dab][Dab]T / II: [Nle][Dab]T[azaGly][Dab][Dab][dF]L[Dab][Dab]T; lactam I:5-I:C, II:5-II:C; linker I:N-II:N via X5): the MIC is above 128 µg/mL in experiment [2] (Ab 8990 (COL^R), media CA-MHB); 2 µg/mL (≈ 0.767 µM) in experiment [3] (Ab AB5075, media CA-MHB); 4 µg/mL (≈ 1.53 µM) in experiment [4] (Pa 27853, media CA-MHB); 8 µg/mL in experiment [5] (Pa LES431 + FBS (50%, heat-inactivated), media CA-MHB); 2 µg/mL (≈ 0.767 µM) in experiment [5] (Pa LES431, media CA-MHB); 4 µg/mL (≈ 1.53 µM) in experiment [6] (Pa PAO1, media CA-MHB).

In the case of `C#CCOCCOCCOCCOCCC(=O)N[C@@H](CCC(C)C)C(=O)N[C@@H](CCN)C(=O)N[C@H](C(=O)NN(CCN)C(=O)N[C@H]1CCNC(=O)[C@H]([C@@H](C)O)NC(=O)[C@H](CCN)NC(=O)[C@H](CCN)NC(=O)[C@H](CC(C)C)NC(=O)[C@@H](Cc2ccccc2)NC(=O)[C@H](CCN)NC1=O)[C@@H](C)O` [Int-127] ({Propargyl(OCH2CH2)4CO}-[hLeu][Dab]T[azaDab][Dab][Dab][dF]L[Dab][Dab]T; lactam 5-C), the minimal inhibitory concentration (MIC) in experiment [2] (Ab 8990 (COL^R), media CA-MHB) is above 128 µg/mL; in experiment [3], 2 µg/mL (≈ 1.39 µM); in experiment [4], 2 µg/mL (≈ 1.39 µM); in experiment [5] it was 1 µg/mL (≈ 0.697 µM); in experiment [6] (PAO1) it was 2 µg/mL (≈ 1.39 µM). For the same compound, the “MIC in RPMI AB 5075” value in experiment [3] stood at 1.00 µg/mL (≈ 0.697 µM). Moreover, the “MIC in RPMI PA 01” value in experiment [6] was found to be 3.99 µg/mL (≈ 2.78 µM).

As for `C#CCOCCOCCOCCOCCC(=O)N[C@@H](CCCCCC)C(=O)N[C@@H](CCN)C(=O)N[C@H](C(=O)NN(CCN)C(=O)N[C@H]1CCNC(=O)[C@H]([C@@H](C)O)NC(=O)[C@H](CCN)NC(=O)[C@H](CCN)NC(=O)[C@H](CC(C)C)NC(=O)[C@@H](Cc2ccccc2)NC(=O)[C@H](CCN)NC1=O)[C@@H](C)O` [Int-129] ({Propargyl(OCH2CH2)4CO}-[Aoc(2)][Dab]T[azaDab][Dab][Dab][dF]L[Dab][Dab]T; lactam 5-C), the “survival (monitored 5 days)” value in experiment [1] (10 mg/kg IV twice at t=+1 h and +4 h, n=5 (FIG. 119)) is listed as 60%. Also, the MIC was found to be 128 µg/mL (≈ 88.4 µM) in experiment [2]; 2 µg/mL (≈ 1.38 µM) in experiment [3]; 4 µg/mL (≈ 2.76 µM) in experiment [4]; 2 µg/mL (≈ 1.38 µM) in experiment [5]; 8 µg/mL (≈ 5.53 µM) in experiment [6] (PAO1).

Source of the values: patent publication US20230165970A1, “COMPOSITIONS AND METHODS FOR THE TREATMENT OF BACTERIAL INFECTIONS” (priority 2017, published 2023).
